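A five-concentration, 48-hour dose response in 96-well plates underlies each endpoint, interpolated linearly between surrounding concentrations. The concentration for 50% growth inhibition is given as GI50.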 The source made the active and inactive calls. Rule as the data show it: active = GI50 up to about 1.1 µM and inactive = higher.
Key:
Test in all cases: growth of human tumour cells (NCI), 48 h
MCF7 = system: MCF7
HCT-15 = system: HCT-15
OVCAR-3 = system: OVCAR-3
SR = system: SR
PC-3 = system: PC-3
LOX IMVI = system: LOX IMVI
CCRF-CEM = system: CCRF-CEM
NCI-H460 = system: NCI-H460
CAKI-1 = system: CAKI-1
MDA-MB-435 = system: MDA-MB-435
Malme-3M = system: Malme-3M
UACC-257 = system: UACC-257
HCT-116 = system: HCT-116
SW-620 = system: SW-620
NCI-H522 = system: NCI-H522
OVCAR-5 = system: OVCAR-5
A549 = system: A549
K562 = system: K562
SK-MEL-28 = system: SK-MEL-28
DU-145 = system: DU-145
EKVX = system: EKVX
SK-MEL-2 = system: SK-MEL-2
SK-MEL-5 = system: SK-MEL-5
M14 = system: M14
SK-OV-3 = system: SK-OV-3
SNB-75 = system: SNB-75
SN12C = system: SN12C
IGROV-1 = system: IGROV-1
NCI/ADR-RES = system: NCI/ADR-RES
COLO 205 = system: COLO 205
HT-29 = system: HT-29
TK-10 = system: TK-10
NCI-H23 = system: NCI-H23
MDA-MB-231 = system: MDA-MB-231
RPMI-8226 = system: RPMI-8226
HL-60 = system: HL-60
OVCAR-8 = system: OVCAR-8
MDA-N = system: MDA-N
SNB-19 = system: SNB-19
UACC-62 = system: UACC-62
T47D = system: T47D
SF-268 = system: SF-268
MOLT-4 = system: MOLT-4
ACHN = system: ACHN
UO-31 = system: UO-31
RXF 393 = system: RXF 393
KM12 = system: KM12
U-251 = system: U-251
786-0 = system: 786-0
SF-295 = system: SF-295
A498 = system: A498
HOP-62 = system: HOP-62
HCC 2998 = system: HCC 2998
BT-549 = system: BT-549
OVCAR-4 = system: OVCAR-4
HOP-92 = system: HOP-92
Hs-578T = system: Hs-578T
SF-539 = system: SF-539
NCI-H226 = system: NCI-H226

## COc1ccc(OC)c(C2CCc3cnc4nc(N)nc(N)c4c3C2)c1 (stereo unspecified)
MCF7
  GI50: > 100 µM (inactive)
HCT-15
  GI50: > 100 µM
OVCAR-3
  GI50: > 100 µM (inactive)
SR
  GI50: 56.9 µM (inactive)
PC-3
  GI50: > 100 µM (inactive)
LOX IMVI
  GI50: 62.1 µM (inactive)
CCRF-CEM
  GI50: > 100 µM (inactive)
NCI-H460
  GI50: 57.3 µM (inactive)
CAKI-1
  GI50: > 100 µM (inactive)
MDA-MB-435
  GI50: 87.1 µM (inactive)
Malme-3M
  GI50: > 100 µM (inactive)
UACC-257
  GI50: 61.9 µM (inactive)
HCT-116
  GI50: 46 µM (inactive)
SW-620
  GI50: > 100 µM (inactive)
NCI-H522
  GI50: > 100 µM (inactive)
OVCAR-5
  GI50: > 100 µM (inactive)
A549
  GI50: 59.6 µM (inactive)
K562
  GI50: 46.9 µM (inactive)
SK-MEL-28
  GI50: > 100 µM (inactive)
DU-145
  GI50: > 100 µM (inactive)
EKVX
  GI50: > 100 µM (inactive)
SK-MEL-2
  GI50: > 100 µM (inactive)
SK-MEL-5
  GI50: > 100 µM (inactive)
M14
  GI50: 92.3 µM (inactive)
SK-OV-3
  GI50: > 100 µM (inactive)
SNB-75
  GI50: 19.7 µM (inactive)
SN12C
  GI50: > 100 µM (inactive)
IGROV-1
  GI50: 56 µM (inactive)
NCI/ADR-RES
  GI50: > 100 µM (inactive)
COLO 205
  GI50: > 100 µM (inactive)
HT-29
  GI50: 70.1 µM (inactive)
TK-10
  GI50: > 100 µM (inactive)
NCI-H23
  GI50: 64.6 µM (inactive)
MDA-MB-231
  GI50: > 100 µM (inactive)
RPMI-8226
  GI50: > 100 µM (inactive)
HL-60
  GI50: > 100 µM (inactive)
OVCAR-8
  GI50: 91.2 µM (inactive)
MDA-N
  GI50: 55.5 µM (inactive)
SNB-19
  GI50: > 100 µM (inactive)
UACC-62
  GI50: 74 µM (inactive)
T47D
  GI50: > 100 µM (inactive)
SF-268
  GI50: > 100 µM (inactive)
MOLT-4
  GI50: > 100 µM (inactive)
ACHN
  GI50: > 100 µM (inactive)
UO-31
  GI50: 37.4 µM (inactive)
RXF 393
  GI50: 33.6 µM (inactive)
KM12
  GI50: > 100 µM (inactive)
U-251
  GI50: 48.8 µM (inactive)
786-0
  GI50: 66.7 µM (inactive)
SF-295
  GI50: 56.2 µM (inactive)
A498
  GI50: > 100 µM (inactive)
HOP-62
  GI50: > 100 µM (inactive)
HCC 2998
  GI50: > 100 µM (inactive)
BT-549
  GI50: > 100 µM (inactive)
OVCAR-4
  GI50: > 100 µM (inactive)
HOP-92
  GI50: > 100 µM (inactive)
Hs-578T
  GI50: > 100 µM (inactive)

## CC12Nc3ccccc3N1C(=O)c1ccccc12 (stereo unspecified)
MCF7
  GI50: > 100 µM (inactive)
HCT-15
  GI50: > 100 µM
OVCAR-3
  GI50: > 100 µM (inactive)
SR
  GI50: > 100 µM (inactive)
PC-3
  GI50: > 100 µM (inactive)
LOX IMVI
  GI50: > 100 µM (inactive)
CCRF-CEM
  GI50: > 100 µM (inactive)
NCI-H460
  GI50: > 100 µM (inactive)
CAKI-1
  GI50: > 100 µM (inactive)
MDA-MB-435
  GI50: > 100 µM (inactive)
UACC-257
  GI50: > 100 µM (inactive)
HCT-116
  GI50: > 100 µM (inactive)
SW-620
  GI50: > 100 µM (inactive)
NCI-H522
  GI50: > 100 µM (inactive)
OVCAR-5
  GI50: > 100 µM (inactive)
A549
  GI50: > 100 µM (inactive)
K562
  GI50: > 100 µM (inactive)
SK-MEL-28
  GI50: > 100 µM (inactive)
DU-145
  GI50: 88.1 µM (inactive)
EKVX
  GI50: > 100 µM (inactive)
SK-MEL-2
  GI50: > 100 µM (inactive)
SK-MEL-5
  GI50: > 100 µM (inactive)
M14
  GI50: > 100 µM (inactive)
SK-OV-3
  GI50: > 100 µM (inactive)
SN12C
  GI50: > 100 µM (inactive)
IGROV-1
  GI50: > 100 µM (inactive)
NCI/ADR-RES
  GI50: > 100 µM (inactive)
COLO 205
  GI50: > 100 µM (inactive)
HT-29
  GI50: > 100 µM (inactive)
TK-10
  GI50: > 100 µM (inactive)
NCI-H23
  GI50: > 100 µM (inactive)
MDA-MB-231
  GI50: > 100 µM (inactive)
RPMI-8226
  GI50: > 100 µM (inactive)
HL-60
  GI50: > 100 µM (inactive)
OVCAR-8
  GI50: > 100 µM (inactive)
MDA-N
  GI50: > 100 µM (inactive)
SNB-19
  GI50: > 100 µM (inactive)
UACC-62
  GI50: > 100 µM (inactive)
T47D
  GI50: > 100 µM (inactive)
SF-268
  GI50: > 100 µM (inactive)
MOLT-4
  GI50: > 100 µM (inactive)
ACHN
  GI50: > 100 µM (inactive)
UO-31
  GI50: > 100 µM (inactive)
RXF 393
  GI50: > 100 µM (inactive)
KM12
  GI50: > 100 µM (inactive)
U-251
  GI50: > 100 µM (inactive)
786-0
  GI50: > 100 µM (inactive)
SF-295
  GI50: > 100 µM (inactive)
A498
  GI50: > 100 µM (inactive)
HOP-62
  GI50: > 100 µM (inactive)
HCC 2998
  GI50: > 100 µM (inactive)
BT-549
  GI50: > 100 µM (inactive)
OVCAR-4
  GI50: > 100 µM (inactive)
HOP-92
  GI50: > 100 µM (inactive)
SF-539
  GI50: > 100 µM (inactive)
Hs-578T
  GI50: > 100 µM (inactive)
NCI-H226
  GI50: > 100 µM (inactive)

## COCCOC(C)C(=O)C(O)S(=O)(=O)O (stereo unspecified)
MCF7
  GI50: > 100 µM (inactive)
HCT-15
  GI50: > 100 µM
OVCAR-3
  GI50: > 100 µM (inactive)
SR
  GI50: > 100 µM (inactive)
PC-3
  GI50: > 100 µM (inactive)
CCRF-CEM
  GI50: > 100 µM (inactive)
NCI-H460
  GI50: > 100 µM (inactive)
MDA-MB-435
  GI50: > 100 µM (inactive)
Malme-3M
  GI50: > 100 µM (inactive)
UACC-257
  GI50: > 100 µM (inactive)
HCT-116
  GI50: > 100 µM (inactive)
SW-620
  GI50: > 100 µM (inactive)
NCI-H522
  GI50: > 100 µM (inactive)
OVCAR-5
  GI50: > 100 µM (inactive)
A549
  GI50: > 100 µM (inactive)
K562
  GI50: > 100 µM (inactive)
SK-MEL-28
  GI50: > 100 µM (inactive)
DU-145
  GI50: > 100 µM (inactive)
EKVX
  GI50: > 100 µM (inactive)
SK-MEL-2
  GI50: > 100 µM (inactive)
SK-MEL-5
  GI50: > 100 µM (inactive)
M14
  GI50: > 100 µM (inactive)
SK-OV-3
  GI50: > 100 µM (inactive)
SNB-75
  GI50: > 100 µM (inactive)
SN12C
  GI50: > 100 µM (inactive)
IGROV-1
  GI50: > 100 µM (inactive)
NCI/ADR-RES
  GI50: > 100 µM (inactive)
COLO 205
  GI50: > 100 µM (inactive)
HT-29
  GI50: > 100 µM (inactive)
TK-10
  GI50: > 100 µM (inactive)
NCI-H23
  GI50: > 100 µM (inactive)
MDA-MB-231
  GI50: > 100 µM (inactive)
RPMI-8226
  GI50: > 100 µM (inactive)
HL-60
  GI50: > 100 µM (inactive)
OVCAR-8
  GI50: > 100 µM (inactive)
MDA-N
  GI50: > 100 µM (inactive)
SNB-19
  GI50: > 100 µM (inactive)
UACC-62
  GI50: > 100 µM (inactive)
T47D
  GI50: > 100 µM (inactive)
SF-268
  GI50: > 100 µM (inactive)
MOLT-4
  GI50: > 100 µM (inactive)
ACHN
  GI50: > 100 µM (inactive)
UO-31
  GI50: > 100 µM (inactive)
RXF 393
  GI50: > 100 µM (inactive)
KM12
  GI50: > 100 µM (inactive)
U-251
  GI50: > 100 µM (inactive)
786-0
  GI50: > 100 µM (inactive)
SF-295
  GI50: > 100 µM (inactive)
A498
  GI50: > 100 µM (inactive)
HOP-62
  GI50: > 100 µM (inactive)
HCC 2998
  GI50: > 100 µM (inactive)
BT-549
  GI50: > 100 µM (inactive)
OVCAR-4
  GI50: > 100 µM (inactive)
HOP-92
  GI50: > 100 µM (inactive)
SF-539
  GI50: > 100 µM (inactive)
Hs-578T
  GI50: > 100 µM (inactive)
NCI-H226
  GI50: > 100 µM (inactive)

— ChEMBL document CHEMBL1201862, “PubChem BioAssay data set” (2004)
